Reference: patent publication US20100304967A1, “METHOD OF PROTECTING RICE CROPS” (SYNGENTA CROP PROTECTION, INC., priority 2007, published 2010)

Columns and labels:
[1] = test system: rice plants; assay: Example 1: damage to directly sown rice from safener-dressed seed after clodinafop application; assay type: in vivo, Oryza sativa; details: for Damage to rice (%) after number of days 5: 5 days after application; for Damage to rice (%) after number of days 10: 10 days after application; for Damage to rice (%) after number of days 15: 15 days after application
Method: (§1) 500 g of rice seed material are soaked in water in a plastic dish for 24 hours. After the water has been poured off, the seed material is allowed to dry in air for 1 to 2 hours; 0.025 or 0.25 g of safener of formula (I) or (II) is then added and vigorous shaking is carried out. Sowing is performed 24 hours later.
(§2) 5 days after sowing, the herbicide clodinafop in the form of an EC 100 is applied at a rate of application of 60 g/ha. 5, 10 and 15 days afterwards, the damage to the rice plants that have emerged and to the weeds is determined.

[2] = test system: wild rice (Oryza sativa), Echinochloa crus-galli and Leptochloa chinensis; assay: Example 1: damage to undesirable grasses after clodinafop application; assay type: in vivo; details: clodinafop 60 g/ha
Method: as §1, §2

[3] = test system: cultivated rice; assay: Example 2: damage to cultivated rice with or without safener seed dressing after clodinafop application; assay type: in vivo, Oryza sativa; details: for Damage to rice (%) after number of days 5: 5 days; for Damage to rice (%) after number of days 10: 10 days; for Damage to rice (%) after number of days 15: 15 days
Method: as §1
5 days after sowing, the herbicide clodinafop in the form of an EC 100 is applied at a rate of application of 60 or 120 g/ha. 5, 10 and 15 days afterwards, the damage to the rice plants that have emerged and to the weeds is determined. For comparison, untreated cultivated rice is tested under the same conditions as an indicator of the behaviour of wild rice.

[4] = no safener, clodinafop EC 100 60 g/ha applied 5 days after sowing
[5] = cultivated rice without safener (indicator for wild rice), clodinafop 60 g/ha
[6] = cultivated rice without safener (indicator for wild rice), clodinafop 120 g/ha
[7] = safener 0.025 g per 500 g of seed material, clodinafop 60 g/ha
[8] = safener 0.25 g per 500 g of seed material, clodinafop 60 g/ha
[9] = rice seed dressed with safener 0.025 g per 500 g
[10] = rice seed dressed with safener 0.25 g per 500 g
[11] = cultivated rice with 0.025 g of safener (per 500 g seed), clodinafop 60 g/ha
[12] = cultivated rice with 0.025 g of safener (per 500 g seed), clodinafop 120 g/ha
[13] = cultivated rice with 0.25 g of safener (per 500 g seed), clodinafop 60 g/ha
[14] = cultivated rice with 0.25 g of safener (per 500 g seed), clodinafop 120 g/ha

## C[C@@H](Oc1ccc(Oc2ncc(Cl)cc2F)cc1)C(=O)O [Clodinafop, clodinafop, reference compound]
[1]; [4]
  Damage to rice (%) after number of days 5: 68%
  Damage to rice (%) after number of days 10: 65%
  Damage to rice (%) after number of days 15: 30%
[2]; no safener
  Damage to undesirable grasses* (%): 93%
[3]; [5]
  Damage to rice (%) after number of days 5: 40%
  Damage to rice (%) after number of days 10: 90%
  Damage to rice (%) after number of days 15: 65%
[3]; [6]
  Damage to rice (%) after number of days 5: 78%
  Damage to rice (%) after number of days 10: 98%
  Damage to rice (%) after number of days 15: 100%

## COC(=O)c1sccc1NS(=O)(=O)c1nc2nc(C)cc(C)n2n1 [Formula II]
[1]; [7]
  Damage to rice (%) after number of days 5: 21%
  Damage to rice (%) after number of days 10: 9%
  Damage to rice (%) after number of days 15: 0%
[1]; [8]
  Damage to rice (%) after number of days 5: 5%
  Damage to rice (%) after number of days 10: 3%
  Damage to rice (%) after number of days 15: 0%
[2]; [9]
  Damage to undesirable grasses* (%): 98%
[2]; [10]
  Damage to undesirable grasses* (%): 99%
[3]; [11]
  Damage to rice (%) after number of days 5: 18%
  Damage to rice (%) after number of days 10: 8%
  Damage to rice (%) after number of days 15: 0%
[3]; [12]
  Damage to rice (%) after number of days 5: 23%
  Damage to rice (%) after number of days 10: 15%
  Damage to rice (%) after number of days 15: 8%
[3]; [13]
  Damage to rice (%) after number of days 5: 13%
  Damage to rice (%) after number of days 10: 9%
  Damage to rice (%) after number of days 15: 0%
[3]; [14]
  Damage to rice (%) after number of days 5: 25%
  Damage to rice (%) after number of days 10: 16%
  Damage to rice (%) after number of days 15: 5%

## CNC(=O)Nc1ccc(S(=O)(=O)NC(=O)c2ccccc2OC)cc1 [Formula I]
[1]; [7]
  Damage to rice (%) after number of days 5: 5%
  Damage to rice (%) after number of days 10: 0%
  Damage to rice (%) after number of days 15: 0%
[1]; [8]
  Damage to rice (%) after number of days 5: 4%
  Damage to rice (%) after number of days 10: 3%
  Damage to rice (%) after number of days 15: 0%
[2]; [9]
  Damage to undesirable grasses* (%): 100%
[2]; [10]
  Damage to undesirable grasses* (%): 98%
